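How tested: cells in 96-well plates exposed to compound for 48 hours at five concentrations. GI50 = concentration required for 50% inhibition of growth. TGI: concentration producing complete growth inhibition.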
Key:
Assay in all cases: NCI tumour cell line growth inhibition, 48 h
786-0 renal = test system: 786-0 renal
A498 renal = test system: A498 renal
A549 NSCLC = test system: A549 NSCLC
ACHN renal = test system: ACHN renal
BT-549 breast = test system: BT-549 breast
CAKI-1 renal = test system: CAKI-1 renal
CCRF-CEM leukemia = test system: CCRF-CEM leukemia
COLO 205 colon = test system: COLO 205 colon
DU-145 prostate = test system: DU-145 prostate
EKVX NSCLC = test system: EKVX NSCLC
HCC-2998 colon = test system: HCC-2998 colon
HCT-116 colon = test system: HCT-116 colon
HCT-15 colon = test system: HCT-15 colon
HL-60(TB) leukemia = test system: HL-60(TB) leukemia
HOP-62 NSCLC = test system: HOP-62 NSCLC
HOP-92 NSCLC = test system: HOP-92 NSCLC
HS 578T breast = test system: HS 578T breast
HT29 colon = test system: HT29 colon
IGROV1 ovarian = test system: IGROV1 ovarian
K-562 leukemia = test system: K-562 leukemia
KM12 colon = test system: KM12 colon
LOX IMVI melanoma = test system: LOX IMVI melanoma
M14 melanoma = test system: M14 melanoma
MALME-3M melanoma = test system: MALME-3M melanoma
MCF7 breast = test system: MCF7 breast
MDA-MB-231 breast = test system: MDA-MB-231 breast
MDA-MB-435 = test system: MDA-MB-435
MOLT-4 leukemia = test system: MOLT-4 leukemia
NCI-H226 lung = test system: NCI-H226 lung

COc1ccccc1CNCCCN1C(=O)c2ccc3c4c(ccc(c24)C1=O)C(=O)N(CCCNCCCCN)C3=O
GI50 (786-0 renal): 616 nM
TGI (786-0 renal): 3670 nM
GI50 (A498 renal): 972 nM
TGI (A498 renal): 2550 nM
GI50 (A549 NSCLC): 290 nM
TGI (A549 NSCLC): 1060 nM
GI50 (ACHN renal): 576 nM
TGI (ACHN renal): 11100 nM
GI50 (BT-549 breast): 1210 nM
TGI (BT-549 breast): 2590 nM
GI50 (CAKI-1 renal): 3310 nM
TGI (CAKI-1 renal): > 42400 nM
GI50 (CCRF-CEM leukemia): 304 nM
TGI (CCRF-CEM leukemia): 3280 nM
GI50 (COLO 205 colon): 125 nM
TGI (COLO 205 colon): 263 nM
GI50 (DU-145 prostate): 664 nM
TGI (DU-145 prostate): 2350 nM
GI50 (EKVX NSCLC): 1150 nM
TGI (EKVX NSCLC): 2820 nM
GI50 (HCC-2998 colon): 171 nM
TGI (HCC-2998 colon): 417 nM
GI50 (HCT-116 colon): 216 nM
TGI (HCT-116 colon): 694 nM
GI50 (HCT-15 colon): 1850 nM
TGI (HCT-15 colon): 10800 nM
GI50 (HL-60(TB) leukemia): 229 nM
TGI (HL-60(TB) leukemia): 527 nM
GI50 (HOP-62 NSCLC): 546 nM
TGI (HOP-62 NSCLC): 2100 nM
GI50 (HOP-92 NSCLC): 400 nM
TGI (HOP-92 NSCLC): 1650 nM
GI50 (HS 578T breast): 1140 nM
TGI (HS 578T breast): 5910 nM
GI50 (HT29 colon): 206 nM
TGI (HT29 colon): 695 nM
GI50 (IGROV1 ovarian): 464 nM
TGI (IGROV1 ovarian): 15900 nM
GI50 (K-562 leukemia): 298 nM
TGI (K-562 leukemia): 1270 nM
GI50 (KM12 colon): 332 nM
TGI (KM12 colon): 1290 nM
GI50 (LOX IMVI melanoma): 202 nM
TGI (LOX IMVI melanoma): 557 nM
GI50 (M14 melanoma): 355 nM
TGI (M14 melanoma): 1150 nM
GI50 (MALME-3M melanoma): 176 nM
TGI (MALME-3M melanoma): 327 nM
GI50 (MCF7 breast): 202 nM
TGI (MCF7 breast): 555 nM
GI50 (MDA-MB-231 breast): 236 nM
TGI (MDA-MB-231 breast): 2780 nM
GI50 (MDA-MB-435): 184 nM
TGI (MDA-MB-435): 397 nM
GI50 (MOLT-4 leukemia): 324 nM
TGI (MOLT-4 leukemia): 1260 nM
GI50 (NCI-H226 lung): 828 nM

Source: PubChem BioAssay (NCI)
